Data: patent publication US12534501B2, “Targeting deregulated Wnt signaling in cancer using stabilized alpha-helices of BCL-9” (Dana-Farber Cancer Institute, Inc., priority 2011, dated 2026)
Numbered stars: 1 amine (or outer) side, 2 acyl side, 3 side chain; on linkers, the order of the positions; unused ones are H or OH. Bridge positions count the residues as written; N and C are the ends. Square brackets hold non-standard residues; d marks the D form. Peptide text beside a SMILES is read from it. ξ: configuration not given here. ξαMeNle(6-ylidene) = CC(CCCC=[*:3])(N[*:1])C(=O)[*:2]; Nle = CCCC[C@H](N)C(=O)O

Legend:
[1] = test system: TCF regulatory sequences (7×TdG) in Colo320 cells; experiment: dGFP reporter under TCF regulatory sequences (7×TdG); format: cell-based
Source text: A lentiviral reporter vector containing seven TCF/LEF-1 binding motifs and a minimal promoter driving destabilized GFP expression (7×TdG) was derived from the lentiviral vector TOP-dGFP, which contains three TCF/LEF-1 binding motifs (Sukhdeo, K. et al. Proc Natl Acad Sci USA 104, 7516-21 (2007)). Two synthetic complementary oligonucleotides (IDT-DNA) with four TCF/LEF-1 binding motifs (GATCAAAGG) were designed to generate compatible overhanging ends for annealing to an Xba1 restriction site. The oligonucleotides were annealed by heating to 95° C. and slow cooling to room temperature, followed by ligating into the Xba1-linearized TOP-dGFP vector, yielding 7×TdG. For construction of the control vector carrying seven FOP-sites (7×FdG), the 7×TOP cassette was removed from the 7×TdG vector by restriction digesting with Xma1 and Age1. A synthetic cassette carrying seven FOP sites (GGCCAAAGG) but otherwise identical to the removed 7×TOP cassette was inserted, yielding 7×FdG. BCL9 shRNA and control shRNA lentiviral vectors were generated as reported (Sampietro, J. et al. Mol Cell 24, 293-300 (2006)). See results in FIG. 10, FIG. 11B. […]
Colo320 cells were subjected to infection for 72 h with either 7×TdG or 7×FdG lentivirus, and the transduced and control non-transduced cells were trypsinized, washed, and then analyzed on a FACSaria flow sorter. […]

[2] = test system: Colo320 cells; experiment: Cellular invasion assay, Matrigel Boyden chambers; format: cell-based; conditions: 5 μM
Method: Angiogenesis was evaluated as previously described (Mani, M. et al. Cancer Res 69, 7577-86 (2009)) using an in vitro angiogenesis assay kit (Millipore). For capillary tube formation analysis, HUVEC were cultured on polymerized matrix gel and exposed to supernatant media collected from Colo320 or MM1S cells treated with vehicle (0.5% DMSO), SAH-BCL9B peptides (5 μM) for 24 h. The number of capillary tubes formed after 5 h treatment at 37° C. was determined by counting 5 randomly selected fields at 40× magnification, according to manufacture's instructions. HUVEC cultured in VEGF media and VEGF-free media were used as positive and negative controls, respectively. Cellular invasion assays were performed using Matrigel Boyden chambers (BD Biosciences) as described (Mani, M. et al. Cancer Res 69, 7577-86 (2009)). The reported data represent the average of three independent experiments performed in triplicate. See results in FIG. 3H-FIG. 3I.

[3] = test system: GFP-positive INA-6 cells in human bone chips of SCID-hu mice; experiment: SCID-hu murine model of human MM; format: in vivo; conditions: for shuIL-6R serum levels: 5 mg/kg local injection every other day; for tumor cell invasion outside the bone chip: histologic analysis
Method: In a second in vivo model, the impact of SAH-BCL9B treatment on the growth of INA-6 MM cells within a human bone graft implanted in the flank of SCID-hu mice was examined (Tassone, P. et al. Blood 106, 713-6 (2005)). GFP-labeled INA-6 cells (5×10^6), which express both BCL9 and β-catenin and are suppressed by SAH-BCL9B in vitro were injected into bone grafts four weeks after implantation. Two days later, cohorts of mice (n=5) were treated by local injection with vehicle (2.5% DMSO in D5W), SAH-BCL9B, or SAH-BCL9B(R359E) peptides (5 mg/kg) for a total of 10 doses administered every other day. To monitor tumor burden, the serum level of soluble human interleukin-6 receptor (shuIL-6R) was measured, which is first detectable 3-4 weeks after INA-6 tumor engraftment. […] Mice were sacrificed 33 days after INA-6 cell injection and evaluated for MM tumor burden by fluorescence imaging, histologic analysis, and anti-CD34 staining. […] Similar to the CRC model, local angiogenesis was suppressed in SAH-BCL9B-treated SCID-hu mice, as monitored by anti-CD34 staining and blood vessel quantitation (FIG. 4I).
For the SCID-hu murine model of human MM, human fetal bone grafts measuring 1.5×0.5 cm were subcutaneously implanted into eight week old male CB-17 SCID mice (Taconic) as previously described (Tassone, P. et al. Blood 106, 713-6 (2005)). Four weeks after bone implantation, 5×10^6 GFP-positive INA-6 MM cells were injected directly into each bone implant. Two days later, mice were treated with 100 μl injections of vehicle (2.5% DMSO in D5W) or SAH-BCL9 peptides (5 mg/kg) instilled adjacent to the bone chips on alternate days for a total of 10 doses. Mouse sera were serially monitored for shuIL-6R levels by ELISA (R&D Systems). Thirty-three days after tumor cell injection, the mice were sacrificed and analyzed for tumor burden by fluorescence imaging and histologic analysis of the bone grafts. See results in FIG. 4A-FIG. 4I. In addition, TUNEL staining was performed on samples obtained from the mice. […] See results in FIG. 22 and FIG. 23. All animal experiments were performed in accordance with approved protocols of the Dana-Farber Cancer Institute Animal Care and Use Committee.

| Compound | dGFP expression [1] | migration through Matrigel Boyden chambers [2] | shuIL-6R serum levels ([3]; 10 doses) | local angiogenesis (anti-CD34 staining, blood vessel quantitation) ([3]; 5 mg/kg local, 10 doses) | tumor burden within the bone chip ([3]; 5 mg/kg local, 10 doses, day 33) | TUNEL positivity in myeloma tumor tissue ([3]; bone chips bearing INA-6 cells) | tumor cell invasion outside the bone chip ([3]; day 33) |
| --- | --- | --- | --- | --- | --- | --- | --- |
| CCCC[C@H](NC(=O)[C@H](CCCNC(=N)N)NC(=O)[C@H](CCC(N)=O)NC(=O)[C@@H](NC(=O)C1(C)CCCC=CCCCC(C)(NC(=O)[C@H](CC(C)C)NC(=O)[C@H](CO)NC(=O)[C@H](CCCNC(=N)N)NC(=O)[C@H](CCC(=O)O)NC(=O)[C@H](CCCNC(=N)N)NC(=O)[C@H](Cc2c[nH]cn2)NC(=O)[C@H](CCC(=O)O)NC(=O)[C@H](CC(C)C)NC(=O)[C@H](CCC(N)=O)NC(=O)[C@H](CCC(=O)O)NC(=O)[C@H](CCC(N)=O)NC(=O)[C@H](CO)NC(=O)[C@H](CC(C)C)NC(C)=O)C(=O)N[C@@H]([C@@H](C)O)C(=O)N[C@@H](CC(C)C)C(=O)N[C@@H](CCCNC(=N)N)C(=O)N1)[C@@H](C)CC)C(=O)N[C@@H](CC(C)C)C(=O)N[C@@H](Cc1ccccc1)C(N)=O (some centres unmarked) [SAH-BCL9B] (Ac-LSQEQLEHRERSL[ξαMeNle(6-ylidene)]TLR[ξαMeNle(6-ylidene)]IQR[Nle]LF-NH2; staple 14-18) | dose-responsively blocked dGFP expression | blocked the migration | low to undetectable levels | suppressed | significantly reduced | notably increased TUNEL positivity | resided within the confines of the bone chip |
| SAH-BCL9B(R359E): SEQ ID NO: 7: LSQEQLEHEERSLXTLRXIQRBLF; reverse polarity point mutant, negative control of SAH-BCL9B | little to no effect | no effect | progressive increase in shuIL-6R levels |  |  |  | invasion into the surrounding soft tissue |
